From patent US20060030574A1, “Quinazoline derivatives useful for the treatment of peripheral arterial disease and as phosphodiesterase inhibitors” (Shire Holdings AG, priority 2004, published 2006)
Several values for one entry are separate records, joined by “and”; a condition that tells them apart may be missing. Equal entries are not always repeated. Where two headings read alike, the source gives them in different places.

What was measured:
Phosphodiesterase II (h) = Phosphodiesterase II (h) (Homo sapiens, UniProt O00408); assay: Phosphodiesterase II (h) inhibition; assay type: biochemical
Phosphodiesterase I = molecular target: Phosphodiesterase I
From the text: (§1) The profile of activity against a selection of phosphodiesterases (I-VI) was investigated. The methods used for the evaluation of the biological activity are all well known in the art. See for example, Weishaar et al; Biochem. Pharmacol., 35:787-800.

[1] = molecular target: Phosphodiesterase III (h) (Homo sapiens, UniProt Q14432); assay: Phosphodiesterase III (h) inhibition; assay type: biochemical
Phosphodiesterase IV (h) = Phosphodiesterase IV (h) inhibition; assay type: biochemical, human; conditions: 10 μM; percent inhibition of control activity, mean values, n = 2
Phosphodiesterase V (h) = Phosphodiesterase V (h) (Homo sapiens, UniProt O76074); assay: Phosphodiesterase V (h) inhibition; assay type: biochemical
From the text: as §1

Phosphodiesterase VI = molecular target: T1, Phosphodiesterase VI (Bos taurus, UniProt P11541+P23439); assay: Phosphodiesterase VI inhibition; assay type: biochemical
T1 sequence (P11541 2-856): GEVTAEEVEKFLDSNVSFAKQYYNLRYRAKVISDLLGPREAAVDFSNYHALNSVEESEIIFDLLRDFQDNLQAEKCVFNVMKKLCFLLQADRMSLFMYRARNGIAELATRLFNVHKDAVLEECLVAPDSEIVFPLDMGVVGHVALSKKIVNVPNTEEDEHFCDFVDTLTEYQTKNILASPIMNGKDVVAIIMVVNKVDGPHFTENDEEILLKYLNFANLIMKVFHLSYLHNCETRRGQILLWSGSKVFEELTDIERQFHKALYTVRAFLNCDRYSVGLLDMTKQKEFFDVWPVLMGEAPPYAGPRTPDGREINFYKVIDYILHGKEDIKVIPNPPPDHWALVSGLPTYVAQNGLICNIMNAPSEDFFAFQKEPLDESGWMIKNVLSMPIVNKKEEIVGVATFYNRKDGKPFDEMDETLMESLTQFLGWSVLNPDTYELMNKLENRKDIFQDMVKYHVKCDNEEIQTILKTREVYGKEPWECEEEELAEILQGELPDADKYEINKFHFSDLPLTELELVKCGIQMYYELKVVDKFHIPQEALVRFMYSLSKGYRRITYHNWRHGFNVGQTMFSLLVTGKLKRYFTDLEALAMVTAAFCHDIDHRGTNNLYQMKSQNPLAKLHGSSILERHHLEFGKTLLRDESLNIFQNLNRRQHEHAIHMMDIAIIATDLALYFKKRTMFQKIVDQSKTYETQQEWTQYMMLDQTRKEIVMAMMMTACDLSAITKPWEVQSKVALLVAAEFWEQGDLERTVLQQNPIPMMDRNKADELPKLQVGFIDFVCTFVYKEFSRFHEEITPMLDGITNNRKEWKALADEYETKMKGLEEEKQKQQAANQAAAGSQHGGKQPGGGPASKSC
T1 sequence (P23439 2-850): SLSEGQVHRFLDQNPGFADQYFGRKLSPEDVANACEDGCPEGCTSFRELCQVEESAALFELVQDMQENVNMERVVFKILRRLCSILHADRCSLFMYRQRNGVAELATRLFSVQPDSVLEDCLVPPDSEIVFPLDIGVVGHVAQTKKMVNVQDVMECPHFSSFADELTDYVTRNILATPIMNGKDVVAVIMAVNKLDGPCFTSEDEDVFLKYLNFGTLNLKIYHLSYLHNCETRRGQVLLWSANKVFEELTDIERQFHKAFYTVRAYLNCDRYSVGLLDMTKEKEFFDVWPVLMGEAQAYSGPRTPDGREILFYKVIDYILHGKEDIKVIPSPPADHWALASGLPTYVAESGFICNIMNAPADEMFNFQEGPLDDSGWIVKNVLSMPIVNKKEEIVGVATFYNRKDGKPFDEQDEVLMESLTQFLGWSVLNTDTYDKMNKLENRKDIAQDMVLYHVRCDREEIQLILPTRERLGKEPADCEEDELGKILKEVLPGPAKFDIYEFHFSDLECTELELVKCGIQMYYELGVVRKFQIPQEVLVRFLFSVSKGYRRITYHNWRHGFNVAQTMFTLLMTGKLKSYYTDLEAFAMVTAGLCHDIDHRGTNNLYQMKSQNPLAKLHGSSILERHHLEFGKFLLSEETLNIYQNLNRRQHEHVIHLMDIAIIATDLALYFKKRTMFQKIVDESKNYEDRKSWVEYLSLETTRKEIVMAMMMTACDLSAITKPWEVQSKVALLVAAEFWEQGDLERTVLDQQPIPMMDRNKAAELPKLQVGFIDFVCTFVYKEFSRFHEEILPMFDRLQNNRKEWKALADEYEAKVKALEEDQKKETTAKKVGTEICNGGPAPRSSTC
T1 sequence (P04972 1-87 partner): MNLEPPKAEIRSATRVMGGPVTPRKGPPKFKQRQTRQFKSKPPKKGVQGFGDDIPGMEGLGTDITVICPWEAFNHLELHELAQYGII
Procedure: The IC50 value against PDEVI was determined.

[2] = Hill coefficient of the reference compound
[3] = Hill coefficient of the test compound

Phosphodiesterase II (h), sequence (O00408 whole entry): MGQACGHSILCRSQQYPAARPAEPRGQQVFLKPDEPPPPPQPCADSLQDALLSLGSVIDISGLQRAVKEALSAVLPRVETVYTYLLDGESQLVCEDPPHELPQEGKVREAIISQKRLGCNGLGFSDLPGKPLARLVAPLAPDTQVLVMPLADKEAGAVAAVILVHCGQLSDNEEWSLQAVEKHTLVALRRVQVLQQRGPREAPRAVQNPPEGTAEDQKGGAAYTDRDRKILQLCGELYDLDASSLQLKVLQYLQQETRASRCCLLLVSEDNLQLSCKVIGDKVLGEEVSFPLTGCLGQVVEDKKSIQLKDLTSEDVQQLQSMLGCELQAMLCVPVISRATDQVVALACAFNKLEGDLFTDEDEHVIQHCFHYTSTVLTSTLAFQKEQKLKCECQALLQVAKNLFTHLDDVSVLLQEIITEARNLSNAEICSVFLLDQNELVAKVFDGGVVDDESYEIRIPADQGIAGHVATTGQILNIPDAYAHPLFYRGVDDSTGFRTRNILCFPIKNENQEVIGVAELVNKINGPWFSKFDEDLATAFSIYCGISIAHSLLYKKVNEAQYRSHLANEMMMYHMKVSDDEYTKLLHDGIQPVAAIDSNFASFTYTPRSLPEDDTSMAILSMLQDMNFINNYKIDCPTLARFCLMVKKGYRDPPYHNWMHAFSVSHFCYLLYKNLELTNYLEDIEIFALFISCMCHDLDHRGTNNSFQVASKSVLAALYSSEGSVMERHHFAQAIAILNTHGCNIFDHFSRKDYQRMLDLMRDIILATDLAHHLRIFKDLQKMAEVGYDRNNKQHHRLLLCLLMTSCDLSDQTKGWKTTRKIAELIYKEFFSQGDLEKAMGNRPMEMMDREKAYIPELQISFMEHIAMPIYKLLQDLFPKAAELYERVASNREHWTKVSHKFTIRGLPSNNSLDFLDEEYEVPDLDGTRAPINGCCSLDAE
Phosphodiesterase III (h), sequence (Q14432 whole entry): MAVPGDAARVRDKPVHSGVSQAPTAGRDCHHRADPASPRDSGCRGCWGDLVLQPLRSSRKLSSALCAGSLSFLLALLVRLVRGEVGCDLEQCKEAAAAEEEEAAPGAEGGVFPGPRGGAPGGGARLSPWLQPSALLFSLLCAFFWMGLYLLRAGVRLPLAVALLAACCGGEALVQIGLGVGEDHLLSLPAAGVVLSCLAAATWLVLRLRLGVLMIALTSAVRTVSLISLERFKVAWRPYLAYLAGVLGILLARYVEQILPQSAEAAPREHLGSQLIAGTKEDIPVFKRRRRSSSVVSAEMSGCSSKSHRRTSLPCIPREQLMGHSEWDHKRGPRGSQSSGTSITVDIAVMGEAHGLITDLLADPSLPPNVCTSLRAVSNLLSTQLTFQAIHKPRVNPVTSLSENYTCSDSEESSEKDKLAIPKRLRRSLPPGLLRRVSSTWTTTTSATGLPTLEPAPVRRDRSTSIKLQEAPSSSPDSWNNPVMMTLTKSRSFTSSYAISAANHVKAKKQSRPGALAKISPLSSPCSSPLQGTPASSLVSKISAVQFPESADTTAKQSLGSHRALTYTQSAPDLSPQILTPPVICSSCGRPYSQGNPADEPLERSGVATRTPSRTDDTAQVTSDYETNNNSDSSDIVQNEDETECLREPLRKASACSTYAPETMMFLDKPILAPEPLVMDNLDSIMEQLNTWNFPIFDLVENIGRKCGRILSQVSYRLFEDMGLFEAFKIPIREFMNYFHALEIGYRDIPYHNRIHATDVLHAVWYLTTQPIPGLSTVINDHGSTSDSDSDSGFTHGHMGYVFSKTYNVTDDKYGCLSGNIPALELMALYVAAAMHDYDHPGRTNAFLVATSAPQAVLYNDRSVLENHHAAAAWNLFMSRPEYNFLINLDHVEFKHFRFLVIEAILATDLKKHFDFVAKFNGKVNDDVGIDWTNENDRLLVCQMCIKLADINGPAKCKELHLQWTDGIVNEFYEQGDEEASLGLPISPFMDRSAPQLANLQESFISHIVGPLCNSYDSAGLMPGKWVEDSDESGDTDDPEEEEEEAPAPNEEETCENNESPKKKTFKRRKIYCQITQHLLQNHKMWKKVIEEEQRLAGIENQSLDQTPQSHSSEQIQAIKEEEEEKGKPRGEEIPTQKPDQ

SMILES: CCCCCC[C@@H]([C@@H](C)O)n1cnc2c(N)ncnc21 (racemic) [EHNA]
- Reference compounds (nH) (Phosphodiesterase II (h); [2]): (0.7)
- IC50 (Phosphodiesterase II (h); control value for the reference compound, read-out: Reference compounds IC50): 2600 nM

SMILES: COCc1nc2c([nH]1)c(=O)n(C)c(=O)n2CC(C)C [8-methoxy-IBMX, reference compound]
- IC50 (Phosphodiesterase I; read-out: Reference compounds IC50, control value for the reference compound): 2410 nM

SMILES: O=C1NC2=Nc3ccc(Cl)c(Cl)c3CN2C1O (stereo not shown) [Compound #3, 6,7-dichloro-3-hydroxy-1,5-dihydro-imidazo[2,1-b]quinazolin-2-one]
- melting point: 170 °C (dec.)

SMILES: O=CC(=O)NC1=Nc2ccc(Cl)c(Cl)c2CN1 [Compound#1, N-(5,6-dichloro-3,4-dihydroquinazolin-2-yl)-2-oxoacetamide]
- % inhibition (Phosphodiesterase I; 10 μM, percent inhibition of control activity, mean values, n = 2): 26%
- inhibition at 10 µM (Phosphodiesterase II (h)): < 10%
- inhibition at 10 µM [1]: 97%
- IC50 ([1]; average of two separate occasions, read-out: IC50 (average)): 0.9 nM
- IC50 ([1]; test compound, assay 1 and assay 2 (two separate occasions), read-out: IC50): 0.69 nM and 1.1 nM
- % inhibition (Phosphodiesterase IV (h)): — (The symbol - indicates an inhibition of less than 10%.)
- inhibition at 10 µM (Phosphodiesterase V (h)): 64%
- inhibition at 10 µM (Phosphodiesterase VI): 89%
- (nH) (Phosphodiesterase VI; [3]): (1.0)

SMILES: O=C1NC2=NCc3c(ccc(Cl)c3Cl)N2C1O (stereo not shown) [Compound#5, (6,7-Dichloro-1-hydroxy-3,5-dihydro-imidazo[1,2-a]quinazolin-2-one)]
- (nH) [1, 3]: 0.4

SMILES: OCCN(CCO)c1nc(N2CCCCC2)c2nc(N(CCO)CCO)nc(N3CCCCC3)c2n1 [dipyridamole, reference compound]
- Reference compounds (nH) (Phosphodiesterase V (h); [2]): (1.3)

SMILES: Cc1[nH]c(=O)c(C#N)cc1-c1ccncc1 [milrinone, reference compound]
- Reference compounds (nH) [1, 2]: 0.6
